From article PMC12616683, “In Vivo Atlas of Neuroprotective Cyclic Dipeptides Derived from Food Gelatin Using Peptidomics and Feature-Based Molecular Networking” (Journal of Agricultural and Food Chemistry, 2025)
Square brackets hold non-standard residues; d marks the D form. Peptide text beside a SMILES is read from it. pGlu = O=C1CC[CH](C(=O)O)N1

Assay: FBMN analysis of short peptides in small intestine contents and serum after oral DHG
Settings: small intestine contents, C57 mice, FBMN feature intensity, peptides smaller than 690 Da; for Peptide signal (feature intensity) in the small intestine, 30 min: 30 min after oral DHG; for Peptide signal (feature intensity) in the small intestine, 60 min: 60 min after oral DHG; for Peptide signal (feature intensity) in the small intestine, 120 min: 120 min after oral DHG; for Peptide signal (feature intensity) in the small intestine, 240 min: 240 min after oral DHG

Row | Structure (SMILES) | Peptide signal (feature intensity) in the small intestine, 30 min | Peptide signal (feature intensity) in the small intestine, 60 min | Peptide signal (feature intensity) in the small intestine, 120 min | Peptide signal (feature intensity) in the small intestine, 240 min
1 | CC[C@H](C)[C@H](NC(=O)[C@@H](N)Cc1cnc[nH]1)C(=O)O [His-Ile] (H-His-Ile-OH) | 1.87E+07 | 0.00E+00 | 2.72E+07 | 2.33E+07
2 | N[C@@H](Cc1cnc[nH]1)C(=O)N1CCC[C@H]1C(=O)O [His-Pro] | 4.26E+07 | 5.51E+07 | 0.00E+00 | 8.49E+06
3 | CCC(C)C(N)C(=O)NC(CCCCN)C(=O)O (stereo not drawn) [Ile-Lys] (H-Ile-Lys-OH; configuration not given here) | 0.00E+00 | 0.00E+00 | 0.00E+00 | 0.00E+00
4 | CC[C@H](C)[C@H](NC(=O)CN)C(=O)O [Gly-Ile] (H-Gly-Ile-OH) | 1.17E+07 | 1.01E+07 | 0.00E+00 | 0.00E+00
5 | CC[C@H](C)[C@H](N)C(=O)N[C@@H](CCC(=O)O)C(=O)N[C@@H](CCCCN)C(=O)O [Ile-Glu-Lys] (H-Ile-Glu-Lys-OH) | 0.00E+00 | 6.83E+05 | 0.00E+00 | 2.93E+06
6 | N[C@@H](CO)C(=O)N[C@@H](Cc1ccccc1)C(=O)O [Ser-Phe] | 0.00E+00 | 1.38E+06 | 0.00E+00 | 4.01E+05
7 | N[C@@H](CC(=O)O)C(=O)N1CCC[C@H]1C(=O)O [Asp-Pro] (H-Asp-Pro-OH) | 0.00E+00 | 7.32E+06 | 1.15E+07 | 2.09E+07
8 | NCC(=O)N[C@@H](Cc1ccc(O)cc1)C(=O)O [Gly-Tyr] (H-Gly-Tyr-OH) | 0.00E+00 | 5.39E+06 | 0.00E+00 | 2.06E+07
9 | CC(C)C[C@H](N)C(=O)N[C@@H](CCC(=O)O)C(=O)O [Leu-Glu] (H-Leu-Glu-OH) | 7.88E+06 | 7.70E+06 | 0.00E+00 | 0.00E+00
10 | CC[C@H](C)[C@H](N)C(=O)N[C@@H](CC(C)C)C(=O)O [Ile-Leu] (H-Ile-Leu-OH) | 3.18E+06 | 3.36E+06 | 0.00E+00 | 0.00E+00
11 | N[C@@H](Cc1cnc[nH]1)C(=O)N[C@@H](Cc1c[nH]c2ccccc12)C(=O)O [His-Trp] | 1.94E+06 | 0.00E+00 | 1.97E+06 | 5.05E+06
12 | CSCC[C@H](NC(=O)CN)C(=O)O [Gly-Met] | 2.08E+06 | 7.49E+05 | 0.00E+00 | 0.00E+00
13 | CCCC[C@H](NC(=O)[C@H](C)N)C(=O)O [L-Alanyl-L-norleucine] (HELM PEPTIDE1{A.[Nle]}$$$$V2.0) | 1.73E+05 | 0.00E+00 | 2.05E+05 | 1.49E+05
14 | CC[C@H](C)[C@H](N)C(=O)NCC(=O)N[C@H](C(=O)O)[C@@H](C)CC [Ile-Gly-Ile] (H-Ile-Gly-Ile-OH) | 0.00E+00 | 2.90E+06 | 1.40E+06 | 1.45E+06

Continued, values first:

Row | Peptide signal (feature intensity) in the small intestine, 30 min | Peptide signal (feature intensity) in the small intestine, 60 min | Peptide signal (feature intensity) in the small intestine, 120 min | Peptide signal (feature intensity) in the small intestine, 240 min | Structure (SMILES)
15 | 2.40E+06 | 6.61E+05 | 0.00E+00 | 4.40E+06 | CC(C)C[C@H](NC(=O)CNC(=O)[C@@H](N)CC(C)C)C(=O)O [Leu-Gly-Leu] (H-Leu-Gly-Leu-OH)
16 | 1.19E+07 | 0.00E+00 | 1.15E+07 | 6.80E+06 | O=C1N[C@@H](Cc2ccccc2)C(=O)N2C[C@@H](O)C[C@@H]12 [cyclo(L-Phe-L-4-Hyp)]
17 | 0.00E+00 | 0.00E+00 | 4.03E+05 | 3.59E+05 | CSCCC(N)C(=O)NC(CC(C)C)C(=O)O (stereo not drawn) [Met-Leu] (H-Met-Leu-OH; configuration not given here)
18 | 9.57E+05 | 9.73E+05 | 1.22E+06 | 0.00E+00 | O=C(O)C(Cc1ccccc1)NC(=O)C1CCCN1 (stereo not drawn) [Pro-Phe] (H-Pro-Phe-OH; configuration not given here)
19 | 3.95E+05 | 0.00E+00 | 6.03E+05 | 4.57E+05 | CC(C)[C@@H]1NC(=O)[C@@H]2CCCN2C1=O [cyclo(L-Val-L-Pro)]
20 | 0.00E+00 | 0.00E+00 | 5.87E+05 | 2.12E+06 | CSCC[C@H](N)C(=O)N[C@@H](Cc1ccccc1)C(=O)O [Met-Phe] (H-Met-Phe-OH)
21 | 4.05E+04 | 6.53E+03 | 0.00E+00 | 0.00E+00 | C[C@@H](O)[C@H](NC(=O)[C@@H](N)Cc1ccccc1)C(=O)O [Phe-Thr]
22 | 0.00E+00 | 0.00E+00 | 0.00E+00 | 1.16E+06 | CSCC[C@H](NC(=O)[C@@H](N)Cc1c[nH]c2ccccc12)C(=O)O [Trp-Met] (H-Trp-Met-OH)
23 | 3.30E+06 | 7.38E+06 | 0.00E+00 | 0.00E+00 | CSCC[C@H](NC(=O)[C@@H](N)C(C)C)C(=O)O [Val-Met] (H-Val-Met-OH)
24 | 0.00E+00 | 1.15E+07 | 0.00E+00 | 1.59E+07 | CC(C)CC(NC(=O)C(N)CO)C(=O)O (stereo not drawn) [Ser-Leu] (H-Ser-Leu-OH; configuration not given here)
25 | 0.00E+00 | 5.23E+06 | 0.00E+00 | 2.48E+07 | CC(C)[C@H](NC(=O)[C@@H](N)CO)C(=O)O [Ser-Val] (H-Ser-Val-OH)
26 | 0.00E+00 | 2.02E+05 | 0.00E+00 | 4.35E+06 | CC[C@H](C)[C@H](NC(=O)[C@@H](N)C(C)C)C(=O)N[C@@H](CCCCN)C(=O)O [Val-Ile-Lys] (H-Val-Ile-Lys-OH)
27 | 6.40E+05 | 1.66E+05 | 0.00E+00 | 0.00E+00 | Cc1cn([C@H]2C[C@H](O)[C@@H](CO)O2)c(=O)[nH]c1=O [Thymidine]
28 | 0.00E+00 | 0.00E+00 | 1.12E+05 | 2.58E+05 | CSCC[C@H](N)C(=O)O [Methionine]
29 | 4.70E+06 | 5.95E+06 | 0.00E+00 | 0.00E+00 | CSCCC(NC(=O)C1CCC(=O)N1)C(=O)O (stereo not drawn) [PyroGlu-Met] ([pGlu]-Met-OH; configuration not given here)
30 | 0.00E+00 | 4.25E+05 | 0.00E+00 | 8.08E+05 | CC(C)C[C@H](NC(=O)[C@@H](N)Cc1ccccc1)C(=O)N[C@@H](CCCCN)C(=O)O [Phe-Leu-Lys] (H-Phe-Leu-Lys-OH)
